# Experimental data from the supplement of paper PMC4862054.
# System: HCC1937
# Test: normalised response (% of control), CellTiter-Glo; higher = more viable cells (100 = DMSO, 0 = benzethonium chloride kill control)
# Conditions: incubation time: 72 h
# Description: (§1)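 DSRT, 72 h incubation, CellTox Green / CellTiter-Glo readout. Signal is normalised to DMSO and benzethonium chloride controls. Value is the normalised response at dose 3.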
row,Structure (SMILES),normalised response [%]
1,Cc1cc2c(F)c(Oc3ncnn4cc(OC[C@@H](C)O)c(C)c34)ccc2[nH]1 [Brivanib] (10 nM),101
2,Nc1nc(Cl)nc2c1ncn2[C@@H]1O[C@H](CO)[C@@H](O)[C@@H]1F [Clofarabine] (100 nM),84.1
3,CCN(CC)CCOc1ccc(C(=C(Cl)c2ccccc2)c2ccccc2)cc1 [Clomifene] (100 nM),101
4,NC1(c2ccc(-c3nc4ccn5c(=O)[nH]nc5c4cc3-c3ccccc3)cc2)CCC1 [MK-2206] (10 nM),96.5
5,NC(=O)c1cccc2cn(-c3ccc([C@@H]4CCCNC4)cc3)nc12 [MK-4827] (100 nM),102
6,O=C(c1cc(Cc2n[nH]c(=O)c3ccccc23)ccc1F)N1CCN(C(=O)C2CC2)CC1 [Olaparib] (100 nM),96
7,CN1CCN(c2nc(C3=C(c4c[nH]c5ccccc45)C(=O)NC3=O)c3ccccc3n2)CC1 [Sotrastaurin] (100 nM),97.8
8,COc1cc2c(N3CCN(C(=O)Nc4ccc(OC(C)C)cc4)CC3)ncnc2cc1OCCCN1CCCCC1 [Tandutinib] (10 nM),97.4
9,CN1CCc2c(c3ccccc3n2Cc2ccc(C(=O)NO)cc2)C1 [Tubastatin A] (100 nM),101

# System: CAL-51
# Test: as above
# Conditions: incubation time: 72 h
# Description: as §1
row,Structure (SMILES),normalised response [%]
1,Cc1cc2c(F)c(Oc3ncnn4cc(OC[C@@H](C)O)c(C)c34)ccc2[nH]1 [Brivanib] (10 nM),106
2,Nc1nc(Cl)nc2c1ncn2[C@@H]1O[C@H](CO)[C@@H](O)[C@@H]1F [Clofarabine] (100 nM),76
3,CCN(CC)CCOc1ccc(C(=C(Cl)c2ccccc2)c2ccccc2)cc1 [Clomifene] (100 nM),102
4,NC1(c2ccc(-c3nc4ccn5c(=O)[nH]nc5c4cc3-c3ccccc3)cc2)CCC1 [MK-2206] (10 nM),74.5
5,NC(=O)c1cccc2cn(-c3ccc([C@@H]4CCCNC4)cc3)nc12 [MK-4827] (100 nM),90.9
6,O=C(c1cc(Cc2n[nH]c(=O)c3ccccc23)ccc1F)N1CCN(C(=O)C2CC2)CC1 [Olaparib] (100 nM),66.4
7,CN1CCN(c2nc(C3=C(c4c[nH]c5ccccc45)C(=O)NC3=O)c3ccccc3n2)CC1 [Sotrastaurin] (100 nM),112
8,COc1cc2c(N3CCN(C(=O)Nc4ccc(OC(C)C)cc4)CC3)ncnc2cc1OCCCN1CCCCC1 [Tandutinib] (10 nM),69.2
9,CN1CCc2c(c3ccccc3n2Cc2ccc(C(=O)NO)cc2)C1 [Tubastatin A] (100 nM),91.8

# System: CAL-120
# Test: as above
# Conditions: incubation time: 72 h
# Description: as §1
row,Structure (SMILES),normalised response [%]
1,Cc1cc2c(F)c(Oc3ncnn4cc(OC[C@@H](C)O)c(C)c34)ccc2[nH]1 [Brivanib] (10 nM),100
2,Nc1nc(Cl)nc2c1ncn2[C@@H]1O[C@H](CO)[C@@H](O)[C@@H]1F [Clofarabine] (100 nM),93.8
3,CCN(CC)CCOc1ccc(C(=C(Cl)c2ccccc2)c2ccccc2)cc1 [Clomifene] (100 nM),103
4,NC1(c2ccc(-c3nc4ccn5c(=O)[nH]nc5c4cc3-c3ccccc3)cc2)CCC1 [MK-2206] (10 nM),102
5,NC(=O)c1cccc2cn(-c3ccc([C@@H]4CCCNC4)cc3)nc12 [MK-4827] (100 nM),105
6,O=C(c1cc(Cc2n[nH]c(=O)c3ccccc23)ccc1F)N1CCN(C(=O)C2CC2)CC1 [Olaparib] (100 nM),91.4
7,CN1CCN(c2nc(C3=C(c4c[nH]c5ccccc45)C(=O)NC3=O)c3ccccc3n2)CC1 [Sotrastaurin] (100 nM),98.1
8,COc1cc2c(N3CCN(C(=O)Nc4ccc(OC(C)C)cc4)CC3)ncnc2cc1OCCCN1CCCCC1 [Tandutinib] (10 nM),100
9,CN1CCc2c(c3ccccc3n2Cc2ccc(C(=O)NO)cc2)C1 [Tubastatin A] (100 nM),98.1

# System: MCF-10A
# Test: as above
# Conditions: incubation time: 72 h
# Description: as §1
row,Structure (SMILES),normalised response [%]
1,Cc1cc2c(F)c(Oc3ncnn4cc(OC[C@@H](C)O)c(C)c34)ccc2[nH]1 [Brivanib] (10 nM),113
2,Nc1nc(Cl)nc2c1ncn2[C@@H]1O[C@H](CO)[C@@H](O)[C@@H]1F [Clofarabine] (100 nM),109
3,CCN(CC)CCOc1ccc(C(=C(Cl)c2ccccc2)c2ccccc2)cc1 [Clomifene] (100 nM),95.2
4,NC1(c2ccc(-c3nc4ccn5c(=O)[nH]nc5c4cc3-c3ccccc3)cc2)CCC1 [MK-2206] (10 nM),110
5,NC(=O)c1cccc2cn(-c3ccc([C@@H]4CCCNC4)cc3)nc12 [MK-4827] (100 nM),110
6,O=C(c1cc(Cc2n[nH]c(=O)c3ccccc23)ccc1F)N1CCN(C(=O)C2CC2)CC1 [Olaparib] (100 nM),101
7,CN1CCN(c2nc(C3=C(c4c[nH]c5ccccc45)C(=O)NC3=O)c3ccccc3n2)CC1 [Sotrastaurin] (100 nM),87.5
8,COc1cc2c(N3CCN(C(=O)Nc4ccc(OC(C)C)cc4)CC3)ncnc2cc1OCCCN1CCCCC1 [Tandutinib] (10 nM),97.8
9,CN1CCc2c(c3ccccc3n2Cc2ccc(C(=O)NO)cc2)C1 [Tubastatin A] (100 nM),102

# System: BT-549
# Test: as above
# Conditions: incubation time: 72 h
# Description: as §1
row,Structure (SMILES),normalised response [%]
1,Cc1cc2c(F)c(Oc3ncnn4cc(OC[C@@H](C)O)c(C)c34)ccc2[nH]1 [Brivanib] (10 nM),100
2,Nc1nc(Cl)nc2c1ncn2[C@@H]1O[C@H](CO)[C@@H](O)[C@@H]1F [Clofarabine] (100 nM),79.5
3,CCN(CC)CCOc1ccc(C(=C(Cl)c2ccccc2)c2ccccc2)cc1 [Clomifene] (100 nM),103
4,NC1(c2ccc(-c3nc4ccn5c(=O)[nH]nc5c4cc3-c3ccccc3)cc2)CCC1 [MK-2206] (10 nM),107
5,NC(=O)c1cccc2cn(-c3ccc([C@@H]4CCCNC4)cc3)nc12 [MK-4827] (100 nM),91.6
6,O=C(c1cc(Cc2n[nH]c(=O)c3ccccc23)ccc1F)N1CCN(C(=O)C2CC2)CC1 [Olaparib] (100 nM),100
7,CN1CCN(c2nc(C3=C(c4c[nH]c5ccccc45)C(=O)NC3=O)c3ccccc3n2)CC1 [Sotrastaurin] (100 nM),98.7
8,COc1cc2c(N3CCN(C(=O)Nc4ccc(OC(C)C)cc4)CC3)ncnc2cc1OCCCN1CCCCC1 [Tandutinib] (10 nM),104
9,CN1CCc2c(c3ccccc3n2Cc2ccc(C(=O)NO)cc2)C1 [Tubastatin A] (100 nM),103

# System: HCC1143
# Test: as above
# Conditions: incubation time: 72 h
# Description: as §1
row,Structure (SMILES),normalised response [%]
1,Cc1cc2c(F)c(Oc3ncnn4cc(OC[C@@H](C)O)c(C)c34)ccc2[nH]1 [Brivanib] (10 nM),105
2,Nc1nc(Cl)nc2c1ncn2[C@@H]1O[C@H](CO)[C@@H](O)[C@@H]1F [Clofarabine] (100 nM),96.4
3,CCN(CC)CCOc1ccc(C(=C(Cl)c2ccccc2)c2ccccc2)cc1 [Clomifene] (100 nM),102
4,NC1(c2ccc(-c3nc4ccn5c(=O)[nH]nc5c4cc3-c3ccccc3)cc2)CCC1 [MK-2206] (10 nM),104
5,NC(=O)c1cccc2cn(-c3ccc([C@@H]4CCCNC4)cc3)nc12 [MK-4827] (100 nM),107
6,O=C(c1cc(Cc2n[nH]c(=O)c3ccccc23)ccc1F)N1CCN(C(=O)C2CC2)CC1 [Olaparib] (100 nM),94.4
7,CN1CCN(c2nc(C3=C(c4c[nH]c5ccccc45)C(=O)NC3=O)c3ccccc3n2)CC1 [Sotrastaurin] (100 nM),98.8
8,COc1cc2c(N3CCN(C(=O)Nc4ccc(OC(C)C)cc4)CC3)ncnc2cc1OCCCN1CCCCC1 [Tandutinib] (10 nM),98.1
9,CN1CCc2c(c3ccccc3n2Cc2ccc(C(=O)NO)cc2)C1 [Tubastatin A] (100 nM),104

# System: MFM-223
# Test: as above
# Conditions: incubation time: 72 h
# Description: as §1
row,Structure (SMILES),normalised response [%]
1,Cc1cc2c(F)c(Oc3ncnn4cc(OC[C@@H](C)O)c(C)c34)ccc2[nH]1 [Brivanib] (10 nM),108
2,Nc1nc(Cl)nc2c1ncn2[C@@H]1O[C@H](CO)[C@@H](O)[C@@H]1F [Clofarabine] (100 nM),104
3,CCN(CC)CCOc1ccc(C(=C(Cl)c2ccccc2)c2ccccc2)cc1 [Clomifene] (100 nM),104
4,NC1(c2ccc(-c3nc4ccn5c(=O)[nH]nc5c4cc3-c3ccccc3)cc2)CCC1 [MK-2206] (10 nM),104
5,NC(=O)c1cccc2cn(-c3ccc([C@@H]4CCCNC4)cc3)nc12 [MK-4827] (100 nM),107
6,O=C(c1cc(Cc2n[nH]c(=O)c3ccccc23)ccc1F)N1CCN(C(=O)C2CC2)CC1 [Olaparib] (100 nM),99.2
7,CN1CCN(c2nc(C3=C(c4c[nH]c5ccccc45)C(=O)NC3=O)c3ccccc3n2)CC1 [Sotrastaurin] (100 nM),92.1
8,COc1cc2c(N3CCN(C(=O)Nc4ccc(OC(C)C)cc4)CC3)ncnc2cc1OCCCN1CCCCC1 [Tandutinib] (10 nM),100
9,CN1CCc2c(c3ccccc3n2Cc2ccc(C(=O)NO)cc2)C1 [Tubastatin A] (100 nM),96.9

# System: BT-474
# Test: as above
# Conditions: incubation time: 72 h
# Description: as §1
row,Structure (SMILES),normalised response [%]
1,Cc1cc2c(F)c(Oc3ncnn4cc(OC[C@@H](C)O)c(C)c34)ccc2[nH]1 [Brivanib] (10 nM),105
2,Nc1nc(Cl)nc2c1ncn2[C@@H]1O[C@H](CO)[C@@H](O)[C@@H]1F [Clofarabine] (100 nM),82.3
3,CCN(CC)CCOc1ccc(C(=C(Cl)c2ccccc2)c2ccccc2)cc1 [Clomifene] (100 nM),105
4,NC1(c2ccc(-c3nc4ccn5c(=O)[nH]nc5c4cc3-c3ccccc3)cc2)CCC1 [MK-2206] (10 nM),102
5,NC(=O)c1cccc2cn(-c3ccc([C@@H]4CCCNC4)cc3)nc12 [MK-4827] (100 nM),109
6,O=C(c1cc(Cc2n[nH]c(=O)c3ccccc23)ccc1F)N1CCN(C(=O)C2CC2)CC1 [Olaparib] (100 nM),96.5
7,CN1CCN(c2nc(C3=C(c4c[nH]c5ccccc45)C(=O)NC3=O)c3ccccc3n2)CC1 [Sotrastaurin] (100 nM),98.2
8,COc1cc2c(N3CCN(C(=O)Nc4ccc(OC(C)C)cc4)CC3)ncnc2cc1OCCCN1CCCCC1 [Tandutinib] (10 nM),98.9
9,CN1CCc2c(c3ccccc3n2Cc2ccc(C(=O)NO)cc2)C1 [Tubastatin A] (100 nM),96.8

# System: Hs578T
# Test: as above
# Conditions: incubation time: 72 h
# Description: as §1
row,Structure (SMILES),normalised response [%]
1,Cc1cc2c(F)c(Oc3ncnn4cc(OC[C@@H](C)O)c(C)c34)ccc2[nH]1 [Brivanib] (10 nM),102
2,Nc1nc(Cl)nc2c1ncn2[C@@H]1O[C@H](CO)[C@@H](O)[C@@H]1F [Clofarabine] (100 nM),98.6
3,CCN(CC)CCOc1ccc(C(=C(Cl)c2ccccc2)c2ccccc2)cc1 [Clomifene] (100 nM),113
4,NC1(c2ccc(-c3nc4ccn5c(=O)[nH]nc5c4cc3-c3ccccc3)cc2)CCC1 [MK-2206] (10 nM),102
5,NC(=O)c1cccc2cn(-c3ccc([C@@H]4CCCNC4)cc3)nc12 [MK-4827] (100 nM),95.1
6,O=C(c1cc(Cc2n[nH]c(=O)c3ccccc23)ccc1F)N1CCN(C(=O)C2CC2)CC1 [Olaparib] (100 nM),97.7
7,CN1CCN(c2nc(C3=C(c4c[nH]c5ccccc45)C(=O)NC3=O)c3ccccc3n2)CC1 [Sotrastaurin] (100 nM),97.5
8,COc1cc2c(N3CCN(C(=O)Nc4ccc(OC(C)C)cc4)CC3)ncnc2cc1OCCCN1CCCCC1 [Tandutinib] (10 nM),101
9,CN1CCc2c(c3ccccc3n2Cc2ccc(C(=O)NO)cc2)C1 [Tubastatin A] (100 nM),102
